Assay results: patent US20110165652A1, “COMPOSITIONS, METHODS AND SYSTEMS FOR SINGLE MOLECULE SEQUENCING” (LIFE TECHNOLOGIES CORPORATION, priority 2008, published 2011)
Entries after “also recorded” stand apart in the source; their conditions may differ.

What was measured:
Type in all cases: biochemical
[1] = Exonuclease activity of Phi29 variants; settings: printed in column Ensemble Extension Activity or in text
[2] = system: 5′ fluorescein-labeled primer:template duplex; assay: Ensemble primer extension with gamma-labeled dNTP by Phi29 mutant protein; settings: for Ensemble Extension Activity: γ-nucleotide incorporation: relative to parent Phi29 exo(−) D12A/D66A, 0.5 μM or 5 μM gamma-labeled dNTP, 10 seconds to 5 minutes; for extension (FIG. 70C, 70D): ensemble PAGE analyses
Excerpt: Table 1, below, summarizes the ability of each mutant Phi29 polymerase to incorporate gamma-labeled nucleotides (as indicated in the column entitled “Ensemble Extension Activity”), fidelity of replication (as indicated in the column entitled “Fidelity”) and for activity in a single-molecule detected system, as depicted in FIGS. 20-59′ and 69-76 and associated description (see below), and indicated in the last column, entitled “Activity on Detection System.” Each and every mutation introduced into a given Phi29 mutant protein is listed in the column entitled “Mutations”; mutations are designated by the original amino acid/its position/its replacement, e.g., V250A means that valine at position 250 was replaced by alanine by site specific mutagenesis. If two or more amino acid substitutions are made, then each is designated as above and separated by a “/”. The predicted effect of a given mutation on polymerase activity, based on structure-function analysis of Phi29 polymerase, is provided in the column entitled “Expected Effect.” The various Phi29 mutants generated via selective mutagenesis, along with any applicable results of extension studies, fidelity assays and single molecule detection studies using each mutant protein, are collectively summarized in Table 1, below. To perform the extension studies, 330 nM Phi29 mutant protein and 100 nM 5′ fluorescein-labeled primer:template duplex were co-incubated in a solution comprising 50 mM Tris (pH 7.0), 2 mM MnCl2, 2 mM DTT, 0.1% Triton-X-100, 0.01% Tween-20. The reactions were initiated by addition of 0.5 μM or 5 μM of gamma-labeled dNTP, and quenched via addition of 30 mM EDTA at timepoints ranging from 10 seconds to 5 minutes. The reaction products were then separated on a 20% denaturing acrylamide gel and imaged on a Bio-Rad Molecular Imager FX. The intensity of each reaction product was quantified using Bio-Rad Quantity One software. FIGS. 20-59′ depict the results of extension studies conducted using specific Phi29 mutants.

[3] = system: template specifying incorporation of a single γ-labeled nucleotide; assay: Real time on-surface single molecule detection of γ-labeled nucleotide incorporation; settings: for Activity on Detection System: more signals: number of signals relative to parent enzyme; for Activity on Detection System: Signals detected (timing of appearance) / Activity on Detection System: high ASB signals / Activity on Detection System: long duration signals: relative to parent enzyme
Protocol: Real time “On surface” experiments were performed to characterize the activity of the Phi29 variants on an exemplary single molecule sequencing system (FIGS. 72A and B). Chambered slides were prepared to facilitate injection and multiple experiments data collection from several chambers using a single slide. The template specified incorporation of a single γ-labeled nucleotide. The samples were excited using a 488 nm Argon ion laser at 2.5 mW and the data were collected at 25 ms integration time. Each stream of data was collected for 1500 frames, consecutive streams were collected for ˜5 minutes by moving to new fields of views (FOVs). FRETAN software was used to obtain the donor and acceptor traces.
After trace analysis, the selected signals (with acceptor signal over background greater than 4, i.e., ASN≧4) were characterized by examining attributes including duration, ASN and timing of signal appearance (i.e., start of signals). The variants that are of special interest include Variants 2 and 3.

[4] = system: γ-dGTP; assay: 7-base homopolymeric extension reactions (FIG. 19B, 19C); settings: for extension under limiting conditions: 1 μM γ-dGTP, 30 second to 1 minute extension time
Excerpt: When the aspartic acid at position 456 is mutated, the activity is reduced but still detectable. FIG. […]
Three residues that have been implicated in catalysis of nucleotide incorporation by phi29 DNA polymerase are D458, D456, and V250 (Berman, Kamtekar et al., 2007). […] In one embodiment, D456 is mutated to glutamic acid, thus distorting the active site, but still allowing catalysis due to the presence of the functional group. The backbone of V250 additionally appears to play a role in catalysis; in some embodiments, the chemistry step will be slowed by mutating the V250 residue to an isoleucine or alanine in order to slow the chemistry step.

[5] = system: 5′ fluorescein-labeled primer:template duplex; assay: Replication fidelity: primer extension with incorrect (non-complementary) gamma-labeled nucleotide; settings: incorrect gamma-labeled nucleotide in lieu of the complementary one
Protocol: To assay the replication fidelity of each mutant Phi29 polymerase protein, primer extensions were carried out in the same manner, except that an incorrect (i.e., non-complementary) gamma-labeled nucleotide was added to the extension mixture in lieu of the complementary nucleotide, and the amount of extended product following extension in presence of the incorrect nucleotide was analyzed.

[6] = system: template specifying incorporation of a single γ-labeled nucleotide followed by a base-labeled nucleotide; assay: On-surface single molecule detection, single γ-labeled nucleotide followed by a base-labeled nucleotide; settings: for frequency of γ-signals detected: single γ and base-labeled nucleotide incorporation
Protocol: Similar experiments were performed using a template specifying incorporation of a single γ-labeled nucleotide followed by a base-labeled nucleotide and data were analyzed as described above.
Example sets of signals detected using Phi29 variants over time are shown (FIGS. 72-75). […] Next, considering the appearance of BL-signals, the signals for the parent enzyme (#1) are nicely distributed and follow a Gaussian distribution (peak in the 121-180 second bin), whereas Variant 2's BL-signals appear between 0-120 seconds—again indicating an earlier appearance of signals when Variant 2 is compared with the parent enzyme.

D12A/D66A/D169A: Phi29 polymerase exo minus variant
exonuclease activity [1]: exo deficient

D169A: Phi29 polymerase variant generated by total DNA synthesis [Variant D169A]
exonuclease activity [1]: exo deficient

D456E: Phi29 exo(−) (D12A/D66A) polymerase mutant [Variant D456E]
Ensemble Extension Activity: first base extension ([2]; γ-nucleotides): Increased first
Activity on Detection System: more signals [3]: Fewer signals.
extension under limiting conditions [4]: significant impact

D456N: Phi29 exo(−) (D12A/D66A) polymerase mutant [Variant D456N]
Ensemble Extension Activity: γ-nucleotide incorporation [2]: Impaired
Activity on Detection System: more signals [3]: Fewer signals.
extension under limiting conditions [4]: significant impact
extension under limiting conditions ([4]; listed as D456 to an asparagine): significantly reduced extension
extension under permissive conditions ([4]; 5 minutes with 5 μM nucleotides): somewhat reduced extension

N62D: mutant based on wild type Φ29 DNA polymerase [Variant N62D]
exonuclease activity [1]: Still has exo

Parent Enzyme Phi29exo(−) D12A/D66A: Phi29 polymerase with mutations D12A and D66A, SEQ. ID: 3, reduced exonuclease activity
Ensemble Extension Activity: γ-nucleotide incorporation [2]: Benchmark
Fidelity (mis-incorporation) [5]: No mis-
Activity on Detection System: more signals [3]: Benchmark
exonuclease activity ([1]; listed as D12A/D66A): exo deficient
exonuclease activity ([1]; listed as Phi29 exo(−)): reduced exonuclease activity
appearance of BL-signals after injection (window; peak bin for parent) [6]: 121 to 180 s
frequency of γ-signals detected [6]: few signals are detected

Q380A: Phi29 exo(−) (D12A/D66A) polymerase mutant [Variant Q380A]
Ensemble Extension Activity: γ-nucleotide incorporation [2]: More efficient
Fidelity (mis-incorporation) [5]: No mis-
Activity on Detection System: more signals [3]: 2.5x more signals.

T15I: mutant based on wild type Φ29 DNA polymerase [Variant T15I]
exonuclease activity [1]: Still has exo

V250A/E375A/Q380A: Phi29 exo(−) (D12A/D66A) polymerase mutant
Ensemble Extension Activity: γ-nucleotide incorporation [2]: Decreased rate
Fidelity (mis-incorporation) [5]: appears to remain intact; also recorded: No mis-
Activity on Detection System: more signals [3]: 3x more signals.
Activity on Detection System: Signals detected (timing of appearance) [3]: earlier.
Activity on Detection System: high ASB signals [3]: More high ASB signals.
Activity on Detection System: long duration signals [3]: More long duration

V250A/E375C: Phi29 exo(−) (D12A/D66A) polymerase mutant
Ensemble Extension Activity: γ-nucleotide incorporation [2]: Decreased rate
Fidelity (mis-incorporation) [5]: appears to remain intact; also recorded: No mis-
Activity on Detection System: more signals [3]: 3.5x more signals.
Activity on Detection System: Signals detected (timing of appearance) [3]: earlier.
Activity on Detection System: long duration signals [3]: More long duration

V250A/E375Y: Phi29 exo(−) (D12A/D66A) polymerase mutant
extension (FIG. 70C, 70D) ([2]; γ-nucleotides, listed as 2): slowed in incorporation
extension (FIG. 70C, 70D) ([2]; γ-nucleotides, listed as Variant 2): improved
Ensemble Extension Activity: γ-nucleotide incorporation [2]: Decreased rate
Fidelity (mis-incorporation) [5]: appears to remain intact; also recorded: No mis-
Activity on Detection System: more signals [3]: 3x more signals.
Activity on Detection System: high ASB signals [3]: More high ASB signals.
Activity on Detection System: long duration signals [3]: More long duration
ASN of signals (population of molecules) ([3]; signals with ASN≧4): higher ASN
duration of signals (population of molecules) ([3]; signals with ASN≧4): longer duration
frequency of events detected ([3]; signals with ASN≧4): higher frequency of events detected
appearance of BL-signals after injection (window; peak bin for parent) [6]: 0 to 120 s
time after injection in which most of the γ-signals are detected [6]: ≤ 60 s
frequency of γ-signals detected [6]: higher frequency
